Measurements taken from PubChem BioAssay (NCI).
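The compound was tested at five concentrations on cells cultured in 96-well plates, with a 48-hour exposure period. The concentration for full growth arrest is given as TGI.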

Legend:
Test in all cases: inhibition of tumour cell growth, NCI panel, 48 h
[1] = test system: 786-0 renal
[2] = test system: A498 renal
[3] = test system: A549 NSCLC
[4] = test system: ACHN renal
[5] = test system: BT-549 breast
[6] = test system: CAKI-1 renal
[7] = test system: CCRF-CEM leukemia
[8] = test system: COLO 205 colon
[9] = test system: DU-145 prostate
[10] = test system: EKVX NSCLC
[11] = test system: HCC-2998 colon
[12] = test system: HCT-116 colon
[13] = test system: HCT-15 colon
[14] = test system: HL-60(TB) leukemia
[15] = test system: HOP-62 NSCLC
[16] = test system: HOP-92 NSCLC
[17] = test system: HS 578T breast
[18] = test system: HT29 colon
[19] = test system: IGROV1 ovarian
[20] = test system: K-562 leukemia
[21] = test system: KM12 colon
[22] = test system: LOX IMVI melanoma
[23] = test system: M14 melanoma
[24] = test system: MALME-3M melanoma
[25] = test system: MCF7 breast
[26] = test system: MDA-MB-231 breast
[27] = test system: MDA-MB-435
[28] = test system: MDA-N
[29] = test system: MOLT-4 leukemia
[30] = test system: NCI-H226 lung
[31] = test system: NCI-H23 lung
[32] = test system: NCI-H460 lung
[33] = test system: NCI-H522 lung
[34] = test system: NCI/ADR-RES ovarian
[35] = test system: OVCAR-3 ovarian
[36] = test system: OVCAR-4 ovarian
[37] = test system: OVCAR-5 ovarian
[38] = test system: OVCAR-8 ovarian
[39] = test system: PC-3 prostate
[40] = test system: RPMI-8226 leukemia
[41] = test system: SF-268 CNS
[42] = test system: SF-295 CNS
[43] = test system: SF-539 CNS
[44] = test system: SK-MEL-2 melanoma
[45] = test system: SK-MEL-5 melanoma
[46] = test system: SK-OV-3 ovarian
[47] = test system: SN12C renal
[48] = test system: SNB-19 CNS
[49] = test system: SNB-75 CNS
[50] = test system: SR leukemia
[51] = test system: SW-620 colon
[52] = test system: T-47D breast
[53] = test system: TK-10 renal
[54] = test system: U251 CNS
[55] = test system: UACC-257 melanoma
[56] = test system: UACC-62 melanoma
[57] = test system: UO-31 renal

Measured: TGI

CN1CCN(CC(=O)N2CCCn3c2nc2ccccc2c3=O)CC1
> 100 µM: all assays above
